In patent publication US7166622B2, “Substituted phenylsulfonamide inhibitors of beta amyloid production” (Wyeth, priority 2002, dated 2007):
Like-named read-outs stand apart in the source and are kept apart here.

What was measured:
CHO-K1 cells = assay: Toxicity in RRA (loss of luciferase signal); settings: toxicity = loss of signal (<0.75 fold increase)
Description: The beta amyloid inhibitory activity of the compounds of the present invention was determined using the Repressor Release Assay (RRA).
“Fold Increase” refers to the amount of luciferase activity (measured in relative light units) over diluent control. “SEM” refers to the standard error of the mean for fold increase.

beta amyloid production = assay: Repressor Release Assay (RRA); assay type: cell-based; settings: for APPI % of Example #98: relative to Example 98
How it was run: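 CHO-K1 cells transiently co-transfected with pRSVO-luc and an APP-lacI construct, replated, then treated in duplicate for 36-48 h at 37 °C, 5% CO2. Compounds diluted in 25 mM Hepes, with Hepes/1% DMSO as diluent control. Luciferase read-out in relative light units; toxicity scored 1 non-toxic, 0 toxic.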

[1] = Conc 20 μg/ml, 1=non-toxic, 0=toxic
[2] = Conc 20 μg/ml, luciferase activity (RLU) over diluent control, read-out: APPI Fold Increase
[3] = Conc 10 μg/ml, luciferase activity over diluent control, read-out: APPI Fold Increase
[4] = Conc 20 μg/ml, luciferase activity over diluent control, read-out: APPI Fold Increase
[5] = Conc 10 μg/ml, luciferase activity over diluent control

Row | Compound | (%)APPI Toxicity (CHO-K1 cells; Conc 20 μg/ml) | (%)APPI Toxicity (CHO-K1 cells; Conc 10 μg/ml) | fold induction at 10 µg/mL (beta amyloid production; [3]) | also measured
1 | 2-fluoro-N-[(1S)-1-(hydroxy 1-methylethyl]benzenesulfonamide [Example 117] | 1 (1=non-toxic) |  |  | APPI Fold Increase (beta amyloid production; Conc 20 μg/ml, luciferase activity over diluent control): 1.5 fold; APPI % of Example #98 (beta amyloid production; Conc 20 μg/ml): 31%
2 | CCCCC[C@H](C)[C@@H](CO)NS(=O)(=O)c1ccc(Br)cc1 [Example 80, 4-bromo-N-[(1S,2S)-1-(hydroxymethyl)-2-methylheptyl]benzenesulfonamide] |  |  |  | (%)APPI Toxicity (CHO-K1 cells; [1]): 1 (1=non-toxic); fold induction at 20 µg/mL (beta amyloid production; [2]): 3.9
3 | CC[C@H](C)[C@@H](CO)NS(=O)(=O)c1ccc(Cl)cc1 [Example 91, 4-Chloro-N-[(1S,2S)-1-(hydroxymethyl)-2-methylbutyl]benzenesulfonamide] | 1 (1=non-toxic) | 1 (1=non-toxic) | 2.38 | (%)APPI Toxicity (CHO-K1 cells; Conc 3 μg/ml): 1 (1=non-toxic); fold induction at 3 µg/mL (beta amyloid production; Conc 3 μg/ml, luciferase activity over diluent control, read-out: APPI Fold Increase): 1.71
4 | CC[C@H](C)[C@@H](CO)NS(=O)(=O)c1ccc(Cl)c(Cl)c1 [Example 24, 3,4-dichloro-N-[(1S,2S)-1-(hydroxymethyl)-2-methylbutyl]benzenesulfonamide] | 1 (1=non-toxic) |  |  | fold induction at 20 µg/mL (beta amyloid production; [4]): 1.6
5 | CC[C@H](C)[C@@H](CO)NS(=O)(=O)c1cc(F)c(Br)cc1F [Example 20, 4-Bromo-2,5-difluoro-N-[(1S,2S)-1-(hydroxymethyl)-2methylbutyl]benzenesulfonamide] | 1 (1=non-toxic) |  |  | fold induction at 20 µg/mL (beta amyloid production; [4]): 3.3
6 | CC[C@H](C)[C@@H](CO)NS(=O)(=O)c1ccc(F)cc1F [Example 9, 2,4-difluoro-N-[(1S,2S)-1-(hydroxymethyl)-2-methylbutyl]benzenesulfonamide] | 1 (1=non-toxic) | 1 (1=non-toxic) | 2.2 | fold induction at 20 µg/mL (beta amyloid production; [4]): 1.8
7 | CC(C)[C@@](C)(CO)NS(=O)(=O)c1ccc(Cl)cc1 [Example 37, 4-chloro-N-[(1S)-1-(hydroxymethyl)-1,2-dimethylpropyl]benzenesulfonamide] | 1 (1=non-toxic) |  |  | fold induction at 20 µg/mL (beta amyloid production; [4]): 4.7
8 | CC[C@H](C)[C@H](NS(=O)(=O)c1ccc(F)cc1)C(O)C=C(C)C (stereo partly drawn) [Example 137, 4-fluoro-N-{(1S)-2-hydroxy-4-methyl 1-[(1S)-1-methylpropyl]-3-pentenyl}benzenesulfonamide] |  | 1 (1=non-toxic) | 1.61 | 
9 | CC[C@H](C)[C@H](NS(=O)(=O)c1ccc(Cl)cc1)C(O)c1ccc(SC)cc1 (stereo partly drawn) [Example 182, 4-chloro-N-((1S,2S)-1-{hydroxy[4-(methylsulfanyl)phenyl]methyl}-2-methylbutyl) benzenesulfonamide] |  | 1 (1=non-toxic) |  | APPI Fold Increase (beta amyloid production; [5]): 2.58 fold; APPI % of Example #98 (beta amyloid production; Conc 10 μg/ml): 122.24%
10 | CC[C@H](C)[C@@H](CO)NS(=O)(=O)c1c(C)cccc1Cl [Example 7, 2-chloro-N-[(1S,2S)-1-(hydroxymethyl)-2-methylbutyl]-6-methylbenzenesulfonamide] | 1 (1=non-toxic) |  |  | fold induction at 20 µg/mL (beta amyloid production; [4]): 1.6
11 | CCC[C@H](c1ccc(OC)cc1)[C@@H](CO)NS(=O)(=O)c1ccc(Cl)cc1 [Example 57, 4-chloro-N-[(1S,2R)-1-(hydroxymethyl)-2-(4-methoxyphenyl)pentyl]benzenesulfonamide] |  |  |  | (%)APPI Toxicity (CHO-K1 cells; [1]): 1 (1=non-toxic); fold induction at 20 µg/mL (beta amyloid production; [2]): 1.7
12 | CC#CC(O)[C@@H](NS(=O)(=O)c1ccc(Br)cc1)[C@@H](C)CC (stereo partly drawn) [Example 162, 4-bromo-N-{(1S)-2-hydroxy-1-[(1S)-1-methylpropyl]-3-pentynyl}benzenesulfonamide] |  | 1 (1=non-toxic) | 1.63 | 
13 | CC[C@H](C)[C@H](NS(=O)(=O)c1ccccc1F)C(O)(c1ccc(Cl)cc1)c1ccc(Cl)cc1 [Example 267, N-{(1S,2S)-1-[bis(4-chlorophenyl)(hydroxy)methyl]-2-methylbutyl}-2-fluoro benzenesulfonamide] |  | 1 (1=non-toxic) |  | APPI Fold Increase (beta amyloid production; [5]): 1.59 fold; APPI % of Example #98 (beta amyloid production; Conc 10 μg/ml): 58.97%
14 | CCCCCC[C@@H](c1ccccc1)[C@@H](CO)NS(=O)(=O)c1ccc(Cl)cc1 [Example 65, 4-chloro-N-[(1S,2S)-1-(hydroxymethyl)-2-phenyloctyl]benzenesulfonamide] |  |  |  | (%)APPI Toxicity (CHO-K1 cells; [1]): 1 (1=non-toxic); fold induction at 20 µg/mL (beta amyloid production; [2]): 1.9
15 | C=C(C)C(O)(C(=C)C)[C@@H](NS(=O)(=O)c1ccc(F)cc1)[C@@H](C)CC [Example 243, 4-fluoro-N-{(1S)-2-hydroxy-2-isopropenyl-3-methyl-1-[(1S)-1-methylpropyl]-3-butenyl}benzenesulfonamide] |  | 1 (1=non-toxic) | 1.7 | 
16 | CC[C@H](C)[C@H](NS(=O)(=O)c1ccc(Br)cc1)C(O)(c1ccccc1)c1ccccc1 [Example 215, 4-bromo-N-{(1S,2S)-1-[hydroxy(diphenyl)methyl]-2-methylbutyl}benzenesulfonamide] |  | 1 (1=non-toxic) | 1.65 | 
17 | CC[C@H](C)[C@H](NS(=O)(=O)c1ccc(F)cc1)C(O)C(C)(C)C (stereo partly drawn) [Example 132, 4-fluoro-N-{(1S)-2-hydroxy-3,3-dimethyl-1-[(1S)-1-methylpropyl]butyl}benzenesulfonamide] |  | 1 (1=non-toxic) | 1.54 | 
18 | CCCCC(O)[C@@H](NS(=O)(=O)c1cccc(Cl)c1)[C@@H](C)CC (stereo partly drawn) [Example 189, 3-chloro-N-{(1S)-2-hydroxy-1-[(1S)-1-methylpropyl]hexyl}benzenesulfonamide] |  | 1 (1=non-toxic) | 1.51 | 
19 | CCCCCC(O)[C@@H](NS(=O)(=O)c1ccc(Br)cc1)[C@@H](C)CC (stereo partly drawn) [Example 147, 4-bromo-N-{(1S)-2-hydroxy-1-[(1S)-1-methylpropyl]heptyl}benzenesulfonamide] |  | 1 (1=non-toxic) | 1.94 | 
20 | CC[C@H](C)[C@H](NS(=O)(=O)c1ccc(F)cc1)C(O)c1ccc(N(C)C)cc1 (stereo partly drawn) [Example 143, N-{(1S,2S)-1-[[4-(dimethylamino)phenyl](hydroxy)methyl]-2-methylbutyl}-4-fluorobenzenesulfonamide] |  | 1 (1=non-toxic) | 5.72 | 
21 | O=S(=O)(NC(CO)(c1ccccc1)C1CCC1)c1ccc(Cl)cc1 (stereo not shown) [Example 125, 4-chloro-N-(1-cyclobutyl-2-hydroxy-1-phenylethyl)benzenesulfonamide] | 1 (1=non-toxic) |  |  | fold induction at 20 µg/mL (beta amyloid production; [4]): 1.8
22 | CC[C@H](C)[C@H](NS(=O)(=O)c1cccc(Cl)c1)C(O)c1ccc(OC)cc1 (stereo partly drawn) [Example 198, 3-chloro-N-{(1S,2S)-1-[hydroxy(4-methoxyphenyl)methyl]-2-methylbutyl}benzenesulfonamide] |  | 1 (1=non-toxic) | 1.54 | 
23 | C=CCCC(O)[C@@H](NS(=O)(=O)c1ccc(Cl)cc1)[C@@H](C)CC (stereo partly drawn) [Example 180, 4-chloro-N-{(1S)-2-hydroxy-1-[(1S)-1-methylpropyl]-5-hexenyl}benzenesulfonamide] |  | 1 (1=non-toxic) | 1.69 | 
24 | CCCCCC[C@@H](CCC)[C@@H](CO)NS(=O)(=O)c1ccc(Cl)cc1 [Example 58, 4-chloro-N-[(1S,2R)-1-(hydroxymethyl)-2-propyloctyl]benzenesulfonamide] |  |  |  | (%)APPI Toxicity (CHO-K1 cells; [1]): 1 (1=non-toxic); fold induction at 20 µg/mL (beta amyloid production; [2]): 2.6
25 | CCCCCCC(O)[C@@H](NS(=O)(=O)c1ccccc1F)[C@@H](C)CC (stereo partly drawn) [Example 203, 2-fluoro-N-{(1S)-2-hydroxy-1-[(1S)-1-methylpropyl]octyl}benzenesulfonamide] |  | 1 (1=non-toxic) | 3.47 | 
26 | COc1ccc([C@@H](C)[C@@H](CO)NS(=O)(=O)c2ccc(Cl)cc2)cc1 [Example 49, 4-Chloro-N-[(1S,2R)-1-(hydroxymethyl)-2-(4-methoxyphenyl)propyl]benzenesulfonamide] | 1 (1=non-toxic) |  |  | fold induction at 20 µg/mL (beta amyloid production; [4]): 2.5
27 | CC[C@@H](c1ccccc1)[C@@H](CO)NS(=O)(=O)c1ccc(Br)cc1 [Example 83, 4-bromo-N-[(1S,2S)-1-(hydroxymethyl)-2-phenylbutyl]benzenesulfonamide] |  |  |  | (%)APPI Toxicity (CHO-K1 cells; [1]): 1 (1=non-toxic); fold induction at 20 µg/mL (beta amyloid production; [2]): 3.4
28 | CCCCC[C@H](CC)[C@@H](CO)NS(=O)(=O)c1ccc(Br)cc1 [Example 81, 4-bromo-N-[(1S,2S)-2-ethyl-1-(hydroxymethyl)heptyl]benzenesulfonamide] |  |  |  | (%)APPI Toxicity (CHO-K1 cells; [1]): 1 (1=non-toxic); fold induction at 20 µg/mL (beta amyloid production; [2]): 5
